In US20070231273A1, “Method for Decreasing Blood Glucose Levels” (priority 2006, published 2007):

What was measured:
KATP channel = details: cited from earlier work
β-cell KATP channels [1] = target: T1, β-cell KATP channels (Rattus norvegicus, UniProt P70673+Q09429); assay: Conventional whole-cell voltage-clamp, ramp pulse-induced KATP channel currents; format: cell-based; set-up: the effects of iptakalim on KATP channels expressed in rat pancreatic β-cells were examined; endogenous in cells; host or cells: primary pancreatic β-cells from male adult Wistar rats; details: for effect on ramp pulse-induced KATP channel whole-cell current: ramp −90 to −50 mV, glucose 5.5 mM
T1 sequence (P70673 whole entry): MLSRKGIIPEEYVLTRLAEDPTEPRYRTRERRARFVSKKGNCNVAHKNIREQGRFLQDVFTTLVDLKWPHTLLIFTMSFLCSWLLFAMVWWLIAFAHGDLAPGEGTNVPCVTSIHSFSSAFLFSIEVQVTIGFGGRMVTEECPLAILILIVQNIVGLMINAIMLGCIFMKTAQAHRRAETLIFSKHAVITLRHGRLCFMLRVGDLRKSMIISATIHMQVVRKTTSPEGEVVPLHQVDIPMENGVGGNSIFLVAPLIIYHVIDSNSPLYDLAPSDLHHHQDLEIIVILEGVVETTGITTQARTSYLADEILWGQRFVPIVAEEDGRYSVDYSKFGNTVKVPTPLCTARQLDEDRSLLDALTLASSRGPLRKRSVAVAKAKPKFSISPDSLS
T1 sequence (Q09429 whole entry): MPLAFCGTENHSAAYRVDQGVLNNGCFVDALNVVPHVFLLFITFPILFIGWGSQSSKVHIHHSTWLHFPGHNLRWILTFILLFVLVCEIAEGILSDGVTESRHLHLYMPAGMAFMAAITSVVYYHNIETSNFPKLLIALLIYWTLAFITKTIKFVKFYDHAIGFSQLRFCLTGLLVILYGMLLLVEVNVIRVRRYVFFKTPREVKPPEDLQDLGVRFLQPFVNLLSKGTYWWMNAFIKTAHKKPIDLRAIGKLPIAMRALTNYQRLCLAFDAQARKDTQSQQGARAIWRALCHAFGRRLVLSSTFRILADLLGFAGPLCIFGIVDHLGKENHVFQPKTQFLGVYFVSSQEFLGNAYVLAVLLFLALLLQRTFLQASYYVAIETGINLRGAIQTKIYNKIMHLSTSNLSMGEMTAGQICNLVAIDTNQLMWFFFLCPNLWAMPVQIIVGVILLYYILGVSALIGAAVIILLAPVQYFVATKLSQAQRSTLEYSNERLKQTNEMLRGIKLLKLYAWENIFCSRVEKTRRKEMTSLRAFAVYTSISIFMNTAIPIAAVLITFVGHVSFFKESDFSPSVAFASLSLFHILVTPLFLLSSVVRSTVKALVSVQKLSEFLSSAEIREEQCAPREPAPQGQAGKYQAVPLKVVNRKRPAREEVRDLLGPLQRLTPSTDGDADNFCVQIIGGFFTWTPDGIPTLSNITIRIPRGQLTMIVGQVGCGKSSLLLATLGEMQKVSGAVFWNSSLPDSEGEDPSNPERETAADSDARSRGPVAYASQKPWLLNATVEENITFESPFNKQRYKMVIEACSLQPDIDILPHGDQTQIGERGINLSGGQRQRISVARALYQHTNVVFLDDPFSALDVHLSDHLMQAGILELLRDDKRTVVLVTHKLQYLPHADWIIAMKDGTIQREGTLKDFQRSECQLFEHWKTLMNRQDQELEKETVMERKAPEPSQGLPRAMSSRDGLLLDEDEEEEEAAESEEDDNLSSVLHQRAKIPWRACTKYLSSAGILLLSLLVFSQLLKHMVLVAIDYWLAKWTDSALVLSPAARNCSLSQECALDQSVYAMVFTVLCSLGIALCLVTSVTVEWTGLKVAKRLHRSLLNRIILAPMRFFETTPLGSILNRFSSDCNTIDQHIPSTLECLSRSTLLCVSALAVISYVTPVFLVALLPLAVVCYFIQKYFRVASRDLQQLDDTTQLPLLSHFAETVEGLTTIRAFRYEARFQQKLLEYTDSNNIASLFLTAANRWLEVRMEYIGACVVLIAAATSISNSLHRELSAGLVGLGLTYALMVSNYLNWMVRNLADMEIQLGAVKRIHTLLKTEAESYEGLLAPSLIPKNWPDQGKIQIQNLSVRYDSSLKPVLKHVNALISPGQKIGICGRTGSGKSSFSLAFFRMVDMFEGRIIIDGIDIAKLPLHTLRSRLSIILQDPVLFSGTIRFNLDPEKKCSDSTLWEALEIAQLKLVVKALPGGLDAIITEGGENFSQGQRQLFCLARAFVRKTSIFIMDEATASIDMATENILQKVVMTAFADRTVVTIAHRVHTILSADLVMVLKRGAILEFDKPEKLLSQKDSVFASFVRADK
Description: (§1) Pancreatic β-cell isolation. Isolation of rat islets was performed as previously described. In short, male adult rats (Wistar) were anesthetized with diethyl ether, and 10 ml of Hank's buffered saline (HBSS) containing collagenase (200 U/ml, Wako Chem., Japan) was injected into the common bile duct. The pancreas, swollen with digestion solution, was quickly excised and incubated in a plastic culture bottle for 20 min at 37° C. The suspension obtained by shaking the bottle was filtered through 0.5 mm metal mesh and washed with HBSS, which included 2% bovine serum albumin (BSA). […] After washing with HBSS, which contained 2% BSA, islets were cultured for 24 h with 5% CO2 in the tissue culture medium. Separation of islets was carried out using dispase (1000 U/ml, Godo Shusei, Japan) as previously described. Separated cells were again cultured for 1-4 days. […] Patch-clamp recordings. Cultured β-cells were kept in a 35-mm Petri dish, and the dish was placed on the stage of an inverted microscope (IMT-2, Olympus, Tokyo, Japan). Membrane potentials and membrane currents were measured using a patch-clamp amplifier (EPC-7, List Electronic, Darmstadt, Germany). The nystatin-perforation method was used to measure the membrane potential and the standard method was used to measure whole-cell currents. […] In order to measure whole-cell membrane current, voltage ramp pulses from −90 to −50 mV were repeatedly applied using a ramp pulse generator (SET-2100, Nihon Kohden, Tokyo, Japan). […] Series resistance below 12 MΩ was accepted. Single channel current recordings were carried out by the cell-attached and inside-out configurations. All electrophysiological experiments were carried out at room temperature (22±1° C.). Data of single channel currents were low-pass filtered at 1 KHz, digitized at 10 KHz and analyzed using a single channel current analysis program (Clampfit 9.2, Axon Instruments, Foster City, Calif.). The concentration-inhibition curve created by iptakalim was fitted using Origin 5.0 (Microcal, North Hampton, Mass.).
Solutions and Drugs. The standard external solution contained (in mM): 135 NaCl, 5.6 KCl, 1.2 MgCl2, 1 CaCl2, 5 glucose, 10 HEPES and pH 7.3 adjusted with KOH. For perforated patch membrane potential recording, the pipette solution contained (in mM): 100 K-gluconate, 35 KCl, 5 glucose, 0.5 EGTA, 10 HEPES, 200 μg/ml nystatin (Sigma, St. Louis, Mo., USA) and pH 7.2. For conventional whole-cell current recording, the pipette solution contained (in mM): 100 K-gluconate, 35 KCl, 1.2 MgCl2, 5 glucose, 0.5 EGTA, 10 HEPES and pH 7.2. For cell-attached and inside-out single channel recordings, the pipette solution contained (in mM): 135 KCl, 1.2 MgCl2, 5 glucose, 0.5 EGTA, 10 HEPES and pH 7.3. […]

[2] = tested on: smooth muscle cells isolated from pulmonary artery; details: patch-clamp whole-cell; also isolated rat aorta denuded vascular endothelium; cited from earlier work
Kir6.2/SUR1 = target: T2, Kir6.2/SUR1 (Homo sapiens, UniProt Q09428+Q14654); assay: Transfected Kir6.2/SUR1 cell line (HEK 293), data not shown; format: cell-based
T2 construct: expressed in transfected cells; host or cells: HEK 293
T2 sequence (Q14654 whole entry): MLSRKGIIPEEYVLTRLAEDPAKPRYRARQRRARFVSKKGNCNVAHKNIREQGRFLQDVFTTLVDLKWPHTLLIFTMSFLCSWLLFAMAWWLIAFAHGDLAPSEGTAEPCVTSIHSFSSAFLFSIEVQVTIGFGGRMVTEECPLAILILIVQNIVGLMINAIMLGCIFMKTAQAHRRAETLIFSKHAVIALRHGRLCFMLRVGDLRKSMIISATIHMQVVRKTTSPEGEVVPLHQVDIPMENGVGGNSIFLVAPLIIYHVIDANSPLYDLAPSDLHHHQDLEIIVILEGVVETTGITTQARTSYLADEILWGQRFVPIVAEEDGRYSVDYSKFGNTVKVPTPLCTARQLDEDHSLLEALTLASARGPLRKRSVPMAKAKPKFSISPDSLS
T2 sequence (Q09428 whole entry): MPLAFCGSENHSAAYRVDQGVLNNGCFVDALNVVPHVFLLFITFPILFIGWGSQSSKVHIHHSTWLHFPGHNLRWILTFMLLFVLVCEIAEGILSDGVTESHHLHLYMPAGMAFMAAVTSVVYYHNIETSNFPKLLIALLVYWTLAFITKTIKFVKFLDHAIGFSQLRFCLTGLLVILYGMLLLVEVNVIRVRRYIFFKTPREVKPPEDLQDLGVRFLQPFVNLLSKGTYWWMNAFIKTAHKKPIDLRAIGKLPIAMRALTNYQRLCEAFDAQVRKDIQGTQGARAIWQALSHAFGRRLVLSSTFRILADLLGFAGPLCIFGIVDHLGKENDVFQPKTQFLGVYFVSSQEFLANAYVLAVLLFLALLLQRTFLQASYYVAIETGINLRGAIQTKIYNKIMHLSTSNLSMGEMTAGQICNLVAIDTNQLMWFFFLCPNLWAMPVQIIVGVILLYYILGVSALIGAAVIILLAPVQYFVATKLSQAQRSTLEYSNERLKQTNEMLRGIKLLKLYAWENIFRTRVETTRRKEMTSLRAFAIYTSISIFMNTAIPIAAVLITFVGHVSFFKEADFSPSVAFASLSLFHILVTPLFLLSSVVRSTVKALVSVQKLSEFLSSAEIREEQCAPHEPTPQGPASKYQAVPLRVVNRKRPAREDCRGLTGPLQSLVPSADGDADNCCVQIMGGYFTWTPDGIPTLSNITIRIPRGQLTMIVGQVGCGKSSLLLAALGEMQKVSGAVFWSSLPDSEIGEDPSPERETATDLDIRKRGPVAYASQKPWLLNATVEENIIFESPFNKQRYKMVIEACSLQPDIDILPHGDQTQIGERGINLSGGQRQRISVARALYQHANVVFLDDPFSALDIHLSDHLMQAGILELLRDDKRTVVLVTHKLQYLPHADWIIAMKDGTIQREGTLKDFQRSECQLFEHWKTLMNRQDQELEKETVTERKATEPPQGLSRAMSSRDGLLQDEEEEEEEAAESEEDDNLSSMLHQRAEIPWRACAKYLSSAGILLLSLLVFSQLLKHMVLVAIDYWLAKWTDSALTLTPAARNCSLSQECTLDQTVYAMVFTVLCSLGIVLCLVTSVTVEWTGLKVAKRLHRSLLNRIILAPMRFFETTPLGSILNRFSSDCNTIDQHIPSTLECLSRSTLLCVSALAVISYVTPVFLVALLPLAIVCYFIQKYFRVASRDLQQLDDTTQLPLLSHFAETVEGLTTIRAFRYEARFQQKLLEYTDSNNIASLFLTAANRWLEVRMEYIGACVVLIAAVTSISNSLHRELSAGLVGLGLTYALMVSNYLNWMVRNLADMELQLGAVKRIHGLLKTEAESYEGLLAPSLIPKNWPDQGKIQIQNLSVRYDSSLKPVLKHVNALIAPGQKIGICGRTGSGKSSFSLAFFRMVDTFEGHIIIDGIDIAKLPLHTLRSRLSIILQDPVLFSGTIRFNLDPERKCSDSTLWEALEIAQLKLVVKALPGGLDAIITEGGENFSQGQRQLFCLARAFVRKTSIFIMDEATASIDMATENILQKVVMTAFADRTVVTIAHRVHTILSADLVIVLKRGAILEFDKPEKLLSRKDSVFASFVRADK
Text: It is well known that KATP channels are expressed in a variety of tissues with different SUR subunits. For instance, cardiovascular KATP channels are formed by Kir6.2-SUR2A, pancreatic β-cell KATP channels are formed by Kir6.2-SUR1, while midbrain dopamine neurons are formed by Kir6.2-SUR1 (15,25-27) or Kir6.2-SUR2B. This diversity in SUR subunit expression results in different sensibilities to metabolic stress agents and KATP channel openers.

[3] = cited from earlier work
[4] = tested on: primary cultured hippocampal neurons; details: K+, but not Na+ and Ca2+; cited from earlier work
β-cell KATP channels [5] = target: T1, β-cell KATP channels; assay: Inside-out patch single channel recording of KATP channels; format: biochemical; set-up: the effects of iptakalim on KATP channels expressed in rat pancreatic β-cells were examined; endogenous in cells; host or cells: primary pancreatic β-cells from male adult Wistar rats; details: 100 μM
Description: Pancreatic β-cell isolation. Isolation of rat islets was performed as previously described. In short, male adult rats (Wistar) were anesthetized with diethyl ether, and 10 ml of Hank's buffered saline (HBSS) containing collagenase (200 U/ml, Wako Chem., Japan) was injected into the common bile duct. The pancreas, swollen with digestion solution, was quickly excised and incubated in a plastic culture bottle for 20 min at 37° C. The suspension obtained by shaking the bottle was filtered through 0.5 mm metal mesh and washed with HBSS, which included 2% bovine serum albumin (BSA). […] After washing with HBSS, which contained 2% BSA, islets were cultured for 24 h with 5% CO2 in the tissue culture medium. Separation of islets was carried out using dispase (1000 U/ml, Godo Shusei, Japan) as previously described. Separated cells were again cultured for 1-4 days. […] Patch-clamp recordings. Cultured β-cells were kept in a 35-mm Petri dish, and the dish was placed on the stage of an inverted microscope (IMT-2, Olympus, Tokyo, Japan). Membrane potentials and membrane currents were measured using a patch-clamp amplifier (EPC-7, List Electronic, Darmstadt, Germany). […] Data of single channel currents were low-pass filtered at 1 KHz, digitized at 10 KHz and analyzed using a single channel current analysis program (Clampfit 9.2, Axon Instruments, Foster City, Calif.). […]

rat pancreatic β-cells = assay: Nystatin-perforation whole-cell recording in current-clamp mode (membrane potential); format: cell-based; details: 100 μM; for effect on membrane potential: in the presence of 10 μM nifedipine
Description: as §1
Solutions and Drugs. […]

β-cell KATP channels [6] = target: T1, β-cell KATP channels; assay: Cell-attached single channel recording of KATP channels; format: cell-based; set-up: the effects of iptakalim on KATP channels expressed in rat pancreatic β-cells were examined; endogenous in cells; host or cells: primary pancreatic β-cells from male adult Wistar rats
Description: as §1
Solutions and Drugs. The standard external solution contained (in mM): 135 NaCl, 5.6 KCl, 1.2 MgCl2, 1 CaCl2, 5 glucose, 10 HEPES and pH 7.3 adjusted with KOH. For perforated patch membrane potential recording, the pipette solution contained (in mM): 100 K-gluconate, 35 KCl, 5 glucose, 0.5 EGTA, 10 HEPES, 200 μg/ml nystatin (Sigma, St. Louis, Mo., USA) and pH 7.2. For conventional whole-cell current recording, the pipette solution contained (in mM): 100 K-gluconate, 35 KCl, 1.2 MgCl2, 5 glucose, 0.5 EGTA, 10 HEPES and pH 7.2. For cell-attached and inside-out single channel recordings, the pipette solution contained (in mM): 135 KCl, 1.2 MgCl2, 5 glucose, 0.5 EGTA, 10 HEPES and pH 7.3. The ionic composition of the solution inside the membrane (bath solution) in inside-out recordings was the same as the pipette solution, but the pH of this solution was 7.2. When performing inside-out recordings, ATP was added to the bath solution at various concentrations.

rat β-cells = assay: Fura-2 Ca2+ imaging of intracellular Ca2+ concentrations; format: cell-based; details: 100 μM bath-applied; sensitive to nifedipine
Description: Fura-2 Ca^2+ imaging. Isolated islets were placed in a glass-bottom culture dish and then loaded with a HEPES buffer solution (in mM: NaCl 140, KCl 4.7, MgCl2 1.2, CaCl2 1.0, glucose 10 and HEPES 10) containing 1 μM fura-2/AM (Dojin, Kumamoto, Japan) for 20 min at room temperature. Ca^+ images were captured using an inverted microscope with 40× Plan-Neofluar objectives (Axiovert 135, Zeiss, Oberkochen, Germany), a silicon intensifier target camera and recorded on a fluorescence-imaging system (Argus 50/CA, Hamamatsu Photonics, Hamamatsu, Japan). Excitation wavelengths were 340 nm and 380 nm, selected from a Xenon light source, and emission wavelength was 510 nm. A change in free intracellular Ca^2+ concentration ([Ca^2+]i) was calculated based on the change in ratio of two fluorescence intensities, F340/F380 (24). All microfluorimetric experiments were carried out at room temperature (22±1° C.).
Iptakalim elevated intracellular Ca^2+ concentrations. Referring to FIGS. 15-18, in order to test whether iptakalim-induced membrane depolarization triggers Ca^2+ influx through voltage-sensitive Ca^2+ channels, intracellular Ca^2+ concentrations were measured using fura-2 florescence imaging.

rat pancreatic islets = assay: Measurement of insulin release from isolated islets (RIA); format: cell-based; details: versus basal at 5.5 mM glucose
Description: Measurement of insulin release. Isolated islets were hand-picked under microscopy, and ten islets were distributed to each 35-mm Petri dish with 3 ml of HBSS containing 5.5 mM glucose, 20 mM HEPES, and 2% BSA. After pre-incubation for 60 min, islets were exposed to 100 nM BIM for 60 min, and then stimulated by high glucose (22.5 mM), tolbutamide (0.5 mM) or iptakalim (0.1 mM) for 30 min. Before and after glucose stimulation, some samples were collected for measurement of immuno-reactive insulin (IRI), and stored at −20° C. until the assay. IRI was measured by RIA using anti-human insulin antibody with rat insulin standard (Radio-immunoassay Kit, Insulin “Eiken”, Tokyo Japan).
Iptakalim increased insulin release from rat pancreatic islets. Turning finally to FIG. 19, the effects of iptakalim were examined on insulin release. […] With glucose at 5.5 mM in the external solution, basal insulin secretion was observed. Application of 22.5 mM glucose increased insulin secretion about 3-fold (p<0.01, n=6), 500 μM tolbutamide increased insulin secretion about 2.5-fold (p<0.01, n=6), and 100 μM iptakalim increased insulin secretion about 1.5-fold (p<0.05, n=8). Each group was averaged from 5-7 cells tested. Vertical bars indicate SE.

[7] = tested on: sulfonylurea (SUR) receptors of KATP channels; details: rat cerebral cortex, hippocampus, and striatum; cited from earlier work
β-cell KATP channels [8] = target: T1, β-cell KATP channels; assay: Preliminary experiments on β-cell KATP channels (data not shown); format: cell-based; set-up: endogenous in cells; host or cells: β-cells (preparation not described for these experiments)
[9] = 100 μM bath-application, Vp 0 mV

For `CC(C)NC(C)(C)C(C)C.Cl` [iptakalim, N-(1-methylethyl)-1,1,2-trimethyl-propylamine hydrochloride], the “displacement of specific binding of [3H]P1075” value (KATP channel) is given as “displaced by iptakalim in a concentration-dependent manner”, the “effect on ramp pulse-induced KATP channel whole-cell current” value (β-cell KATP channels [1]; 100 μM bath-application) is given as “reduced the magnitude of the KATP channel current” and the “Hill coefficient of block of KATP channel current” value (β-cell KATP channels [1]; whole-cell, concentration-inhibition curve) is given as 0.7. For the same compound, the IC50 (β-cell KATP channels [1]; whole-cell, concentration-inhibition curve, read-out: IC50 of block of KATP channel current) was 3.3 µM, the “effect on K+ currents” value [2] was “significantly enhanced K^+ currents” and the “sensitivity of Kir6.2/SUR1 channels (opening)” value (Kir6.2/SUR1) was “insensitivity”. The water solubility [3] was “water-soluble”, the “effect on voltage-activated currents” value [4] was “selectively enhanced voltage-activated K^+” and the mean open-time probability (β-cell KATP channels [5]; absence of ATP, reduced from 0.359±0.065) was 0.145±0.041. The mean open-time probability (β-cell KATP channels [5]; presence of 10 μM ATP, reduced from 0.222±0.042) was 0.103±0.029, the “effect on membrane potential and action potential firing” value (rat pancreatic β-cells; 5.5 mM glucose in external solution) was “slowly depolarized the membrane and elicited action potential firing” and the “effect on membrane potential” value (rat pancreatic β-cells) was “clearly depolarized the membrane”. For the same compound, the “effect on KATP channel activity” value (β-cell KATP channels [6]; [9]) was “reduced channel activities”, the “effect on KATP channel activity” value (β-cell KATP channels [6]; 100 μM, Vp −60 mV) was “reduced KATP channel activity” and the “open-time probability of KATP channels” value (β-cell KATP channels [6]; during application of 100 μM, before application 0.43±0.0438, Vp 0 mV) was 0.121±0.026. For the same compound, the “current amplitude of KATP channels” value (β-cell KATP channels [6]; during application of 100 μM, before application 3.51±0.17 pA, Vp 0 mV) was 3.16±0.14 pA, the “mean open time of KATP channels” value (β-cell KATP channels [6]; during application of 100 μM, before application 5.95±0.62 ms, Vp 0 mV) was 8.78 ± 0.81 ms and the “effect on intracellular Ca2+ concentrations” value (rat β-cells) was “induced elevation of intracellular Ca^2+ concentrations”. The “increase of insulin secretion” value (rat pancreatic islets; 100 μM) was “about 1.5 fold”.

For `CC1=NS(=O)(=O)c2cc(Cl)ccc2N1` [diazoxide, reference compound], the “effect on membrane potential” value (rat pancreatic β-cells) was “remarkably hyperpolarized the membrane” and the “effect on KATP channel activity” value (β-cell KATP channels [6]; [9]) was “dramatically enhanced KATP channel activity”.

In the case of `CCC(C)(C)N=C(NC#N)Nc1cccnc1` [P1075], the “displacement of [3H]iptakalim binding” value [7] is given as “displaced”.

In the case of `CC(N/C(=N\C#N)Nc1ccncc1)C(C)(C)C` (stereo not shown) [pinacidil], the “effect on β-cell KATP channels” value (β-cell KATP channels [8]) is given as “showed inhibition of β-cell KATP channels” and the “displacement of [3H]iptakalim binding” value [7] is given as “displaced”.

In the case of `CCCCNC(=O)NS(=O)(=O)c1ccc(C)cc1` [tolbutamide, reference compound], the “effect on ramp pulse-induced KATP channel whole-cell current” value (β-cell KATP channels [1]; 500 μM) is reported as “reversibly abolished the size of the current”, the “effect on KATP channel activity” value (β-cell KATP channels [6]; 500 μM bath-application, Vp 0 mV) is reported as “completely abolished KATP channel activity” and the “sensitivity of spontaneous single channel activities” value (β-cell KATP channels [6]; 500 μM bath-applied, Vp −60 mV) is reported as “very sensitive”. The “increase of insulin secretion” value (rat pancreatic islets; 500 μM) was “about 2.5 fold”.
